# Earlier results as cited in patent US20210137911A1, “NOVEL CHRONOTHERAPY BASED ON CIRCADIAN RHYTHMS” (THE TRUSTEES OF THE UNIVERSITY OF PENNSYLVANIA, priority 2014, published 2021).
# Details: half-life of therapeutic compound as listed in Table 1; cited from earlier work
row,Compound,½ Life
1,CC(C)[C@H]1CC[C@H](C(=O)N[C@H](Cc2ccccc2)C(=O)O)CC1 [Nateglinide],1.5 h
2,CCc1nn(CCCN2CCN(c3cccc(Cl)c3)CC2)c(=O)n1CCOc1ccccc1 [Nefazodone],2 h
3,O=C(O)c1cccnc1Nc1cccc(C(F)(F)F)c1 [Niflumic Acid],2.5 h
4,COCCOC(=O)C1=C(C)NC(C)=C(C(=O)OC(C)C)C1c1cccc([N+](=O)[O-])c1 (centres unmarked) [Nimodipine],1.7 h
5,CC(=O)Oc1ccccc1C(=O)Nc1ncc([N+](=O)[O-])s1 [Nitazoxanide],3.5 h
6,O=C(O)c1cc(/N=N/c2ccc(O)c(C(=O)O)c2)ccc1O [Olsalazine],0.9 h
7,COc1ccc2[nH]c([S+]([O-])Cc3ncc(C)c(OC)c3C)nc2c1 (centres unmarked) [Omeprazole],0.5 h
8,Cc1nccn1CC1CCc2c(c3ccccc3n2C)C1=O (centres unmarked) [Ondansetron],5.7 h
9,CCCCCCCCCCC[C@@H](C[C@@H]1OC(=O)[C@H]1CCCCCC)OC(=O)[C@H](CC(C)C)NC=O [Orlistat],1 h
10,CCOC(=O)C1=C[C@@H](OC(CC)CC)[C@H](NC(C)=O)[C@@H](N)C1 [Oseltamivir],1 h
11,C[C@]12COC(=O)C[C@@H]1CC[C@@H]1[C@@H]2CC[C@@]2(C)[C@H]1CC[C@]2(C)O [Oxandrolone],0.55 h
12,C=CCOc1ccccc1OCC(O)CNC(C)C (centres unmarked) [Oxprenolol],1 h
13,Cn1c(=O)c2[nH]cnc2n(C)c1=O [Oxtriphylline],3 h
14,COc1ccc2c3c1O[C@H]1C(=O)CC[C@@]4(O)[C@@H](C2)N(C)CC[C@]314 [Oxycodone],4.5 h
15,CN1CC[C@]23c4c5ccc(O)c4O[C@H]2C(=O)CC[C@@]3(O)[C@H]1C5 [Oxymorphone],1.3 h
16,COc1ccnc(C[S+]([O-])c2nc3ccc(OC(F)F)cc3[nH]2)c1OC (centres unmarked) [Pantoprazole],1 h
17,C[C@H](/C=C/[C@H](C)C(C)(C)O)[C@H]1CC[C@H]2/C(=C/C=C3C[C@@H](O)C[C@H](O)C3)CCC[C@]12C [Paricalcitol],4 h
18,Nc1nc2[nH]cc(CCc3ccc(C(=O)N[C@@H](CCC(=O)O)C(=O)O)cc3)c2c(=O)[nH]1 [Pemetrexed],3.5 h
19,OC[C@H]1O[C@@H](n2cnc3c2NC=NC[C@H]3O)C[C@@H]1O [Pentostatin],5.7 h
20,C1CCC(C(CC2CCCCN2)C2CCCCC2)CC1 (centres unmarked) [Perhexiline],2 h

# Same assay, conditions: in vivo; cited from earlier work
row,Compound,½ Life
1,CS(=O)(=O)Nc1ccc([N+](=O)[O-])cc1Oc1ccccc1 [Nimesulide],1.8 h
2,CC[C@H](C)[C@@H]1NC(=O)[C@H](Cc2ccc(O)cc2)NC(=O)[C@@H](N)CSSC[C@@H](C(=O)N2CCC[C@H]2C(=O)N[C@@H](CC(C)C)C(=O)NCC(N)=O)NC(=O)[C@H](CC(N)=O)NC(=O)[C@H](CCC(N)=O)NC1=O [Oxytocin],0.0166 h
3,CC(=O)O[C@H]1C[C@@H]2CC[C@@H]3[C@H](CC[C@@]4(C)[C@H]3C[C@H]([N+]3(C)CCCCC3)[C@@H]4OC(C)=O)[C@@]2(C)C[C@@H]1[N+]1(C)CCCCC1 [Pancuronium],1.5 h
4,COc1ccc(Cc2nccc3cc(OC)c(OC)cc23)cc1OC [Papaverine],0.5 h
5,CSCC[C@H](NC(=O)[C@H](Cc1c[nH]c2ccccc12)NC(=O)CCNC(=O)OC(C)(C)C)C(=O)N[C@@H](CC(=O)O)C(=O)N[C@@H](Cc1ccccc1)C(N)=O [Pentagastrin],0.166 h
6,CCCC(C)C1(CC)C(=O)NC(=O)NC1=O (centres unmarked) [Pentobarbital],5 h
